Measurements published in publication PMC12635268, “Novel antimicrobial peptides and peptide-microbiome crosstalk in Appalachian salamander skin” (NPJ Biofilms and Microbiomes, 2025).
Read-outs that look alike come from different tables or passages of the source. Ends that are not written are not given here.

Assays:
[1] = test system: Batrachochytrium dendrobatidis Bd-GPL strain JEL404; conditions: for Bd inhibition score (percent inhibition), mean: slope of growth, positive = inhibition, negative = no inhibition
Protocol: Bd-peptide challenge assays were conducted with the crude peptides extracted from the salamander skin secretions and with the 20 synthesized peptides. We followed methods by Pereria et al.[49] to conduct assays with the crude peptides using Bd-GPL strain JEL404 at 1 × 10^6 zoospores/mL. Briefly, skin peptide samples were pooled together based on species-site-injection (Table 1). Skin peptides samples were serially diluted 2-fold in MilliQ (Ultrapure Type 1) water and assayed at a concentration of 2.35–75 μg/mL based on starting peptide concentration available. For synthesized peptides, we conducted assays from 15.6 to 500 μg/ml. In both assays, we quantified percent inhibition of each well using slope of growth[90] in which positive values indicate inhibition and negative values indicate no inhibition.

P. aeruginosa ATCC 27853 = experiment: microbe, parasite or virus in culture; conditions: P. aeruginosa 27853; Week 2 (12/14/2023)
Outline: (§1)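 Broth microdilution in cation-adjusted Mueller-Hinton broth, final inoculum 1 × 10⁵ CFU/mL, peptides 0.25 to 128 μg/mL in 0.02% TFA + 0.04% BSA. Duplicates incubated 20 h at 37 °C without agitation. MIC read visually per CLSI with image-analysis support.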

A. baumannii ATCC 19606 = experiment: microbe, parasite or virus in culture; conditions: A. baumannii 19606; Week 2 (12/14/2023)
Outline: as §1

[2] = test system: K. pneumoniae ATCC 700603; experiment: microbe, parasite or virus in culture; conditions: K. pneumoniae 700603; Week 2 (12/14/2023)
Outline: as §1

A. baumannii ATCC 17978 = experiment: microbe, parasite or virus in culture; conditions: A. baumannii 17978; Week 2 (12/14/2023)
Outline: as §1

P. aeruginosa MRSN 5519 = experiment: microbe, parasite or virus in culture; conditions: P. aeruginosa 5519; Week 2 (12/14/2023)
Outline: as §1

E. faecium ATCC 49224 = experiment: microbe, parasite or virus in culture; conditions: E. faecium 49224; Week 2 (12/14/2023)
Outline: as §1

E. cloacae ATCC 13047 = experiment: microbe, parasite or virus in culture; conditions: E. cloacae 13047; Week 2 (12/14/2023)
Outline: as §1

S. aureus ATCC 43300 = experiment: microbe, parasite or virus in culture; conditions: S. aureus 43300; Week 2 (12/14/2023)
Outline: as §1

K. pneumoniae ATCC 13883 = experiment: microbe, parasite or virus in culture; conditions: K. pneumoniae 13883; Week 2 (12/14/2023)
Outline: as §1

E. coli ATCC 43888 = experiment: microbe, parasite or virus in culture; conditions: E. coli 43888; Week 2 (12/14/2023)
Outline: as §1

E. faecium ATCC 19434 = experiment: microbe, parasite or virus in culture; conditions: E. faecium 19434; Week 2 (12/14/2023)
Outline: as §1

S. aureus ATCC 25923 = experiment: microbe, parasite or virus in culture; conditions: S. aureus 25923; Week 2 (12/14/2023)
Outline: as §1

E. coli ATCC 35218 = experiment: microbe, parasite or virus in culture; conditions: E. coli 35218; Week 2 (12/14/2023)
Outline: as §1

E. cloacae ATCC 35549 = experiment: microbe, parasite or virus in culture; conditions: E. cloacae 35549; Week 2 (12/14/2023)
Outline: as §1

P. aeruginosa PA01 = experiment: microbe, parasite or virus in culture; assay type: cell-based; conditions: P. aeruginosa 15692 (PAO1); Week 2 (12/14/2023)
Protocol: Antimicrobial susceptibility testing of the 20 synthesized peptides against 17 bacterial strains of clinical relevance in the ESKAPEE panel was conducted using minimum inhibitory concentration (MIC) assays following the broth microdilution method outlined by Parker et al.[91]. The ESKAPEE panel is comprised of fourteen American Type Culture Collection (ATCC) strains and three Multidrug Resistant Organism Repository and Surveillance Network (MRSN) bacterial strains. These strains represent at least one drug-susceptible strain and one drug-resistant strain for each bacterium to assess drug efficacy across various resistance mechanisms. This panel is comprised of the following bacterial species and strains: E. faecium (ATCC 19434, ATCC 49224), S. aureus (ATCC 25923, ATCC 43300), K. pneumoniae (ATCC 700603, ATCC 13883, MRSN 1320), A. baumannii (ATCC 17978, ATCC 19606, MRSN 959), P. aeruginosa (ATCC 15692, ATCC 27853, MRSN 5519), E. cloacae (ATCC 13047, ATCC 35549), and E. coli (ATCC 35218, ATCC 43888). Bacteria were grown in cation-adjusted Mueller-Hinton broth (CAMHB) to achieve a final inoculum of 1 × 10⁵ CFU/mL. CAMHB is selected for its batch-to-batch reproducibility, low levels of antimicrobial inhibitors, and ability to support the growth of most bacterial pathogens.
Briefly, lyophilized peptides were dissolved in 0.2% TFA + 0.4% BSA in water to 2.56 mg/mL, ultrasonicated for 20 min, diluted 10-fold into CAMHB, and then serially diluted 2-fold in 0.02% TFA + 0.04% BSA in CAMHB and assayed at a concentration of 0.25 to 128 μg/mL. Assays were set up using the Tecan Freedom EVO liquid handling robot and software (Tecan, Switzerland) with 50 μL of bacterial inoculum and 50 μL of peptide transferred into round-bottom 96-well microtiter plates. Each plate assay was performed in duplicate and incubated at 37 °C for 20 h without agitation. Bacterial growth was assessed using the BIOMIC V3 Image Analysis system (Giles Scientific, USA) and the MIC values were determined visually according to the Clinical and Laboratory Standards Institute (CLSI) guidelines.

K. pneumoniae 4640 = conditions: K. pneumoniae 4640; Week 2 (12/14/2023)
[3] = design: method as in Biomatik (vendor); conditions: 1.0 mg peptide in 1.0 ml solvent; peptides synthesized by Biomatik; ref Biomatik (vendor); cited from earlier work
A. baumannii 5075 = conditions: Week 2 (12/14/2023)
P. aeruginosa PA01 (Si) = experiment: microbe, parasite or virus in culture; assay type: cell-based; conditions: P. aeruginosa PA01 (Si), not typical ESKAPEE strain; Week 2 (12/14/2023)
Excerpt: Supplement 41522_2025_837_MOESM13_ESM.xlsx, sheet "Table_S13_ESKAPEE-MIC" | column: Bacterial MIC (µg/mL)

[4] = synthesized peptide 15.625 μg/mL
[5] = synthesized peptide 31.25 μg/mL

Sequence | Bd inhibition score (percent inhibition), mean [1, 4] [%] | Bd inhibition score (percent inhibition), mean [1, 5] [%] | Bd inhibition score (percent inhibition), mean ([1]; synthesized peptide 62.5 μg/mL) [%] | Bd inhibition score (percent inhibition), mean ([1]; synthesized peptide 125 μg/mL) [%] | Bd inhibition score (percent inhibition), mean ([1]; synthesized peptide 250 μg/mL) [%] | Bd inhibition score (percent inhibition), mean ([1]; synthesized peptide 500 μg/mL) [%] | Bacterial MIC (P. aeruginosa ATCC 27853) [µg/mL] | Bacterial MIC (A. baumannii ATCC 19606) [µg/mL] | Bacterial MIC [2] [µg/mL] | Bacterial MIC (A. baumannii ATCC 17978) [µg/mL] | Bacterial MIC (P. aeruginosa MRSN 5519) [µg/mL] | Bacterial MIC (E. faecium ATCC 49224) [µg/mL] | Bacterial MIC (E. cloacae ATCC 13047) [µg/mL] | Bacterial MIC (S. aureus ATCC 43300) [µg/mL] | Bacterial MIC (K. pneumoniae ATCC 13883) [µg/mL] | Bacterial MIC (E. coli ATCC 43888) [µg/mL] | Bacterial MIC (E. faecium ATCC 19434) [µg/mL] | Bacterial MIC (S. aureus ATCC 25923) [µg/mL] | Bacterial MIC (E. coli ATCC 35218) [µg/mL] | Bacterial MIC (E. cloacae ATCC 35549) [µg/mL] | other results
RMIRRPPGFTPFR [PrAd-Eb10] | -10.4305 | -6.071 | -6.0656 | -13.7553 | -14.8924 | -12.1229 | >128.000 | >128.000 | >128.000 | >128.000 | >128.000 | >128.000 | >128.000 | >128.000 | >128.000 | >128.000 | >128.000 | >128.000 | >128.000 | >128.000 | Bacterial MIC (P. aeruginosa PA01): >128.000 µg/mL; Bacterial MIC (K. pneumoniae 4640): >128.000 µg/mL; Suggest solvent (solubility) [3]: 1.0mg peptide soluble in 1.0ml H2O; Bacterial MIC (A. baumannii 5075): >128.000 µg/mL; Bacterial MIC (P. aeruginosa PA01 (Si)): >128.000 µg/mL
EPVPPGFTPFR [PrAd-Eb13] | -15.8993 | -14.7717 | -15.0589 | -17.1018 | -17.5569 | -12.696 | >128.000 | >128.000 | >128.000 | >128.000 | >128.000 | >128.000 | >128.000 | >128.000 | >128.000 | >128.000 | >128.000 | >128.000 | >128.000 | >128.000 | Bacterial MIC (P. aeruginosa PA01): >128.000 µg/mL; Bacterial MIC (K. pneumoniae 4640): >128.000 µg/mL; Suggest solvent (solubility) [3]: 1.0mg peptide soluble in 1.0ml H2O; Bacterial MIC (A. baumannii 5075): >128.000 µg/mL; Bacterial MIC (P. aeruginosa PA01 (Si)): >128.000 µg/mL
FPRPPGFTPFR [PrAd-Eb12] | -2.358 | 4.727 | 5.096 | 3.64 | 0.8166 | 9.489 | >128.000 | >128.000 | >128.000 | >128.000 | >128.000 | >128.000 | >128.000 | >128.000 | >128.000 | >128.000 | >128.000 | >128.000 | >128.000 | >128.000 | mild Bd inhibition, average across concentrations ([1]; synthesized peptide, concentrations down to 31.25 μg/mL): 1–9.5%; Bacterial MIC (P. aeruginosa PA01): >128.000 µg/mL; Bacterial MIC (K. pneumoniae 4640): >128.000 µg/mL; Suggest solvent (solubility) [3]: 1.0mg peptide soluble in 1.0ml H2O; Bacterial MIC (A. baumannii 5075): >128.000 µg/mL; Bacterial MIC (P. aeruginosa PA01 (Si)): >128.000 µg/mL
